Assay results: patent US20240009259A1, “USE OF CRASSOCEPHALUM RABENS EXTRACT IN THE PREVENTION AND/OR TREATMENT OF FATIGUE AND/OR DEPRESSION” (ACADEMIA SINICA, priority 2021, published 2024)
Structures can show the parent of a compound that is named as a salt.

How the values were obtained:
[1] = Blood (serum) biochemical parameters after 28-day treatment; format: in vivo, BALB/c mice; conditions: male mice, 28 days
[2] = system: skeletal muscle lactate dehydrogenase (LDH); test: Skeletal muscle lactate dehydrogenase (LDH) activity after forced swimming test; format: in vivo, BALB/c mice; conditions: Program II; male mice; Fluoxetine 10 mg/kg i.p. daily
[3] = system: skeletal muscle malate dehydrogenase (MDH); test: Skeletal muscle malate dehydrogenase (MDH) activity after forced swimming test; format: in vivo, BALB/c mice; conditions: Program II; male mice; Fluoxetine 10 mg/kg i.p. daily
[4] = format: in vivo, BALB/c mice; conditions: Program II; male mice; Fluoxetine 10 mg/kg i.p. daily, 4 weeks

Q: For `CNCCC(Oc1ccc(C(F)(F)F)cc1)c1ccccc1` (centres unmarked) [Fluoxetine, fluoxetine hydrochloride], which “ALB, albumin (serum)” value ([1]; Fluoxetine 10 mg/kg i.p. daily) is on record?
A: Its value is 3.67 ± 0.28 g/dL.

Q: And the “ALP, alkaline phosphatase (serum)” value ([1]; Fluoxetine 10 mg/kg i.p. daily)?
A: The value was 501.2 ± 21.2 U/L.

Q: And the “CHO, cholesterol (serum)” value ([1]; Fluoxetine 10 mg/kg i.p. daily)?
A: Its value is 136.5 ± 42.9 mg/dL.

Q: What about the “CTE, creatinine (serum)” value ([1]; Fluoxetine 10 mg/kg i.p. daily) of the same compound?
A: Its value is 0.45 ± 0.05 mg/dL.

Q: And the “GLU, glucose (serum)” value ([1]; Fluoxetine 10 mg/kg i.p. daily)?
A: The value was 207.0 ± 12.6 mg/dL.

Q: And the “GOT, glutamic oxaloacetic transaminase (serum)” value ([1]; Fluoxetine 10 mg/kg i.p. daily)?
A: Its value is 171.0 ± 19.8 U/L.

Q: What about the “GPT, glutamic pyruvic transaminase (serum)” value ([1]; Fluoxetine 10 mg/kg i.p. daily) of the same compound?
A: Its value is 61.2 ± 19.2 U/L.

Q: And the “HDL, high-density lipoprotein (serum)” value ([1]; Fluoxetine 10 mg/kg i.p. daily)?
A: The value was 136.6 ± 15.3 mg/dL.

Q: What about the “LDH, lactate dehydrogenase (serum)” value ([1]; Fluoxetine 10 mg/kg i.p. daily) of the same compound?
A: The value was 362.7 ± 65.3 U/L.

Q: What about the “TBIL, total bilirubin (serum)” value ([1]; Fluoxetine 10 mg/kg i.p. daily) of the same compound?
A: Its value is 0.65 ± 0.04 mg/dL.

Q: What about the “TG, triglyceride (serum)” value ([1]; Fluoxetine 10 mg/kg i.p. daily) of the same compound?
A: The value was 288.3 ± 27.1 mg/dL.

Q: And the “TP, total protein (serum)” value ([1]; Fluoxetine 10 mg/kg i.p. daily)?
A: The value was 5.01 ± 0.35 g/dL.

Q: What about the “UA, uric acid (serum)” value ([1]; Fluoxetine 10 mg/kg i.p. daily) of the same compound?
A: The value was 2.77 ± 0.32 mg/dL.

Q: What about the “serum biochemical parameters” value ([1]; Fluoxetine i.p.) of the same compound?
A: Its value is “no significant difference and fall within the reference range of normal or healthy mice”.

Q: And the “increase of LDH activity compared to the vehicle control treatment” value [2]?
A: Its value is 1.3 fold.

Q: And the “increase of MDH activity compared to the vehicle control treatment” value [3]?
A: The value was 1.1 fold.

Q: And the “body weight, feed and water intake” value [4]?
A: Its value is “did not have significant differences”.
